For orientation: Tmax means the time at which the peak concentration occurs. As a reminder, the solubility is the dissolved amount per volume that the medium holds. As a reminder, the inhibition is the share of the control response that was lost under treatment. Low values mean little suppression, high ones strong suppression.

Structures are written as SMILES. Values after ≈ are worked out from the molar mass of the structure shown.

Data set [1] is described as follows: Pharmacokinetic test in rat. It counts as in vivo. The settings on record: PO 10 mg/kg. The method, then: A certain amount of sample was weighed and dissolved in deionized water to prepare 1 mg/mL of solution. Male SD rats were used as test animals. The dose of single intravenous (IV) injection was 2 mg/kg, and the dose of oral (PO) administration was 10 mg/kg. Each group had three rats. The rats in oral group were fasted for 10-14 hours before administration, and were fed 4 hours after administration. Blood collection time points of animals were before administration, and 5 min, 15 min, 30 min, 1 h, 2 h, 4 h, 6 h, 8 h, and 24 h after administration for intravenous administration; before administration, and 15 min, 30 min, 1 h, 2 h, 4 h, 6 h, 8 h and 24 h after administration for oral administration. About 0.25 mL of blood was collected via the jugular vein from each animal, and heparin sodium was used for anticoagulation. After collecting the blood samples, the blood samples were placed on ice and centrifuged to separate the plasma (centrifugation conditions: 8000 rpm, 6 min, 4° C.). The collected plasma was stored at −80° C. before analysis. 50 μL of plasma sample was taken into 1.5 mL centrifuge tube, 250 μL of internal standard solution was added, and the same volume of methanol rather than internal standard solution was added in the blank group. […]

Data set [2] can be described thus: Solubility of free compound Ic-1 in different solvents. The data set is classed as physicochemical. As to conditions: thermodynamic from solid, room temperature. The method, then:
The free base of the compound of formula Ic-1 was used as the starting material to obtain other salt forms. The free base of the compound of formula Ic-1 was an oily substance, and the solubility of the free base of the compound of formula Ic-1 in 11 common solvents was tested at room temperature. In the experiment, about 2 mg of compound Ic-1 oily sample was weighed into a 3-ml vial, and then the corresponding solvent was gradually added (50, 50, 200, 700 μLL) and shaken until the solution was clear. If the sample was still not dissolved after adding the solvent to 1 ml, the solvent was not added any more. The rough solubility range calculated according to the mass of the solid sample, the volume of the added solvent and the observed dissolution phenomenon was shown in Table 8.

Data set [3] deals with T1, TRPV1 (Homo sapiens, UniProt Q8NER1).
T1 construct: expressed in transfected cells
Description: Manual patch clamp detection on TRPV1 channel. The data set is classed as cell-based. As to conditions: HEK293, Capsaicin-induced current. The method, then: TRPV1 cells were cultured in a cell culture dish with a diameter of 35 mm, placed in a 37° C., 5% CO2 incubator, and passaged at a ratio of 1:5 every 48 hours. Medium formula: 90% DMEM (Invitrogen), 10% Fetal bovine serum (Gibco). 2 mM L-glutamine, 50 μg/mL Hygromycin B (Invitrogen) and 5 μg/mL Blasticidine HCl (Invitrogen). Before electrophysiological patch clamp experiments, the cell culture medium was replaced with medium containing 1 μg/mL Doxycycline for at least 16 hours to induce the expression of TRPV1.
On the day of the experiment, the cell culture medium was aspirated, the cell were rinsed once with extracellular fluid, and then 0.25% Trypsin-EDTA (Invitrogen) solution was added, and digested at room temperature for 1-2 minutes. The digestion solution was aspirated, the cell were resuspended with extracellular fluid, and transferred to the experimental dish for electrophysiological recording for further experiment. […]
HEK293 cells stably expressing TRP channels, the corresponding agonist-induced channel current was recorded by whole-cell patch clamp technique at room temperature. […] Clamp voltages and data recording were controlled and recorded by a computer using pClamp 11 software with the sampling frequency of 10 kHz and the filtering frequency of 2 kHz. […] After the current was evoked for more than 40 s and no attenuation was determined, the dosing process started. […]
On the technique in general: Patch clamp records ionic current or voltage across a cell membrane.

T1 sequence (Q8NER1 whole entry, species assumed): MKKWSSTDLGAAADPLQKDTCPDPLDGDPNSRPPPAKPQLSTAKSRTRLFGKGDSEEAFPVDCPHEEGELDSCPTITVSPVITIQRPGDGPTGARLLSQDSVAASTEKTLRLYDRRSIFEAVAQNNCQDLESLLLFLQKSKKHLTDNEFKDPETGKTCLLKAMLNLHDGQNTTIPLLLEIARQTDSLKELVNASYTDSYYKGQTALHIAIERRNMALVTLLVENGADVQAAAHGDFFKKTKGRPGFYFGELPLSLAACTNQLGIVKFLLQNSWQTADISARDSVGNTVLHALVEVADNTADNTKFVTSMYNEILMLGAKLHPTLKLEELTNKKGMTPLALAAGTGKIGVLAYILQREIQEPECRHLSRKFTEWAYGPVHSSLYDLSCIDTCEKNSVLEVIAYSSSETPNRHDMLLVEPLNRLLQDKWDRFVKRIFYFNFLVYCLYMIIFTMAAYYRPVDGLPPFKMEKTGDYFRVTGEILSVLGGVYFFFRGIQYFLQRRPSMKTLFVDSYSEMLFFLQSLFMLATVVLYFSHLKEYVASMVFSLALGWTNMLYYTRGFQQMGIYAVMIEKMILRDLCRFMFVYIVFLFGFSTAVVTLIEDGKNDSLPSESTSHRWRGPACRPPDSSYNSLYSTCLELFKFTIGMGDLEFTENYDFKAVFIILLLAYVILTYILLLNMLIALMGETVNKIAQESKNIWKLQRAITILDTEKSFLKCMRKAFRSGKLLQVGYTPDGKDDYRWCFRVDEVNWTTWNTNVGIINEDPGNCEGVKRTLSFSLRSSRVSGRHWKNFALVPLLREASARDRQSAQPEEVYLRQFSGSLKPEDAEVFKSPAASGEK

As to `CNCC[C@H](Oc1cccc2ccccc12)c1cccs1` [Duloxetine (S configuration), Duloxetine, reference compound], the “Tmax” value in data set [1] came out at 50 min.
For `CNCC[C@H](Oc1cccc2ccoc12)c1cccs1` [IC-1, (S)-3-(Benzofuran-7-yloxy)-N-methyl-3-(thiophen-2-yl)propan-1-amine], the solubility was over 38 mg/mL in data set [2] (aqueous with cosolvent or surfactant or cyclodextrin, Methanol:Water (1:1)); over 46 mg/mL in data set [2] (organic solvent or mixture, Acetone); over 54 mg/mL in data set [2] (organic solvent or mixture, Acetonitrile); over 38 mg/mL in data set [2] (organic solvent or mixture, Dimethyl sulfoxide); over 42 mg/mL in data set [2] (organic solvent or mixture, Ethanol); over 36 mg/mL in data set [2] (organic solvent or mixture, Ethyl acetate). Further, the solubility is over 38 mg/mL in data set [2] (organic solvent or mixture, Methanol); over 42 mg/mL in data set [2] (organic solvent or mixture, Methyl isobutyl ketone); over 40 mg/mL in data set [2] (organic solvent or mixture, Tetrahydrofuran); 7.6 to 23 mg/mL (≈ 26.4 to 80 mM) in data set [2] (organic solvent or mixture, n-Heptane); under 2 mg/mL in data set [2] (Water). The compound also registered an inhibition at 10 µM in data set [3] of 22.5%.

Source of the values: patent US12492195B2, “Preparation method for and crystal form of 3-aryloxy-3-five-membered heteroaryl-propylamine compound” (Zhangzhou Pien Tze Huang Pharmaceutical Co., Ltd., priority 2020, dated 2025).
